Data reported in patent US20070255041A1, “Bioengineered Vehicles for Targeted Nucleic Acid Delivery” (priority 2000, published 2007).

Tests used:
[1] = system: 3T3 cells (c-erbB-2 non-expressing); assay: Transfection of 3T3 cells with pXL3031 luciferase plasmid; type: cell-based; settings: 10% serum, mean of three measures
Protocol: (§1) Transfections were done using C6.5-H1, C6ML3-9 sFv′-H1, C6ML3-9 sFv′-P1 (comprising C6ML3-9 coupled to human protamine P1 peptide) and C6ML3-9 sFv′-salmon protamine (C6ML3-9-SP). Conjugates were mixed in […] with pXL3031 (pCOR Luc^+) reporter plasmid at different ratios and, after a 10 minute incubation, used to transfect c-erbB-2 expressing (3T3-HER2) or non-expressing (3T3) cell lines. Transfection were performed in the presence of 10% fetal calf serum (FCS) for 3T3-HER2, or 10% calf serum (CS) for 3T3. After 24 hours of incubation, cells were washed twice with PBS and lysed with 200 μl of cell culture lysis reagent (Promega). Luciferase expression was quantified using a luciferase assay kit (Promega) and a Lumat LB9501 luminometer (EG and G). Light emission (RLU) was normalized to the protein concentration of each sample, measured using the Pierce BCA assay. Conditions of transfection are summarized below for each experiment.
(§2) All transfections were done in the presence of 10% serum. Best transfection conditions are indicated for each compound. All complexes with sFv′ conjugates were formed in 20 mM NaCl, and all complexes with RPR120535 were formed in 20 mM NaHCO3150 mM NaCl. Values correspond to the mean of three different measures of the same assay.

[2] = system: 3T3-HER2 cells (c-erbB-2 expressing); assay: Transfection of 3T3-HER2 cells with pXL3031 luciferase plasmid; type: cell-based; settings: for RLU/μg of cell proteins: 10% serum, mean of three measures
Protocol: as §1, §2

[3] = system: MCF-7 cells; assay: Luciferase reporter gene delivery to erbB-2 negative control cells; type: cell-based; settings: FIG. 19
[4] = system: SK-OV-3 cells; assay: Luciferase reporter gene delivery to erbB-2 positive cells; type: cell-based, human
Protocol: Gene delivery experiments were carried out with the anti-erbB-2 sFv′-[salmon protamine]-DNA complex (C6.5 sFv′-SP-DNA or C6ML3-9 sFv′-SP-DNA). The reporter DNA plasmid was the pGL3-control from Promega, which encodes the luciferase gene under control of the SV40 early promoter and enhancers. The erbB-2 positive cell line used in the study was SK-OV-3, a human ovarian cancer cell line. 200 ng of pGL3 reporter plasmid DNA was incubated with increasing amounts of either the sFv′-[salmon protamine] conjugates (sFv′-SP), or the sFv′ mixed with salmon protamine (SP) alone as described. Formation of the protein-DNA complex was confirmed by gel mobility shift analysis (data not shown). The mixture of protein and DNA were then incubated with SK-OV-3 cells in the absence or presence of 100 μM chloroquine. The protein-DNA mixture was removed from the cell culture after a 20 hour incubation. Cells were harvested for luciferase assays at about 40 hours post-incubation using a Dynex MLX Luminometer. The experiment data presented are an averaged data from quadruplet samples of a typical experiment.

[5] = system: plasmid DNA (pGL-control or pXL3031); assay: Gel mobility shift analysis of complex formation with plasmid DNA; type: binding; settings: 5.8 pmole (360 ng) conjugate; FIG. 18
Protocol: The ability of the anti-erbB-2 C6ML3-9 sFv′-salmone protamine (SP) conjugates to complex with plasmid DNA was tested by a gel mobility shift analysis.
The DNA was added last, and the mixture incubated on ice for 1 to 1.5 hour (in the case of kinetics studies, incubation time was from 5 minutes to 60 minutes as indicated). 2 μl of loading buffer (50% glycerol in 1×TE with dye) was added to the 20 μl reaction. The reaction was electrophoresed on 0.8% agarose gel in 1×TAE, 150 V for about an hour at room temperature and stained with EtBr overnight.

[6] = system: SK-OV-3 cells; assay: pGeneGrip Rhodamine/GFP plasmid delivery, fluorescent microscopy, erbB-2 positive cells; type: cell-based, human; settings: SK-OV-3, at 48 hours
Text: pGeneGrip Rhodamine/GFP plasmid (Gene Therapy Systems) was used as another reporter plasmid for studying C6.5 sFv′-SP and C6ML3-9 sFv′-SP-mediated gene delivery. In this case, plasmid DNA encoding green fluorescent protein (GFP) was labeled with rhodamine, which allows one to follow internalization of the plasmid DNA as well as the expression of GFP. This reporter facilitated evaluation of the gene delivery efficiency at both DNA and protein expression levels. […] SK-OV-3 and MCF-7 cells were incubated with the protein/DNA complexes and fixed at 6, 24, 48, and 72 hours post-incubation for fluorescent microscopy. FIG. 21 represents the data from the 48 hour time point. […] The rhodamine labeled DNA could be seen inside of SK-OV-3 cells at 24 hours (data not shown). However, the GFP gene expression, was very low, about 1-2% cells being GFP positive in the case of C6ML3-9 sFv′-SP-mediated delivery at 48 hours. It should be noted that, although low, GFP expression level still correlates with the amount of DNA inside of the cells (FIG. 21, compare C6.5 sFv′-SP-DNA with that C6ML3-9 sFv′-SP-DNA). […] The low expression of GFP may be caused by the difficulty of plasmid DNA either escaping from the endosomes or reaching the nucleus.

[7] = 3T3-HER2, 7 μg/μg of DNA, no chloroquine

## CCCCCCCCCCCCCCCCCCN(CCCCCCCCCCCCCCCCCC)C(=O)CNC(=O)CNCCCNCCCCNCCCN [RPR120535, reference compound]
[1]; 6 nmoles/μg of DNA, no chloroquine
  RLU/μg of cell proteins: 26100000 RLU/μg of cell proteins
[2]; 3T3-HER2, 6 nmoles/μg of DNA, no chloroquine
  RLU/μg of cell proteins: 2980000 RLU/μg of cell proteins

## C6ML3-9 sFv′-H1: C6ML3-9 sFv′ reacted with maleimide-H1 peptide (residues 166 to 192 of human histone H1)
[1]; 7 μg/μg of DNA, no chloroquine
  RLU/μg of cell proteins: 0 (±0) RLU/μg of cell proteins
[2]; [7]
  RLU/μg of cell proteins: 27400 (±6030) RLU/μg of cell proteins
[2]; 3T3-HER2, increasing conjugate to DNA mass ratio from 4 to 10, FIG. 26
  increase in transfection efficiency: 10 fold
[2]; competition, specificity of gene transfer, FIG. 25
  transfection activity on addition of free C6ML3-9 sFv′ or C6ML3-9 sFv′-H1 complexed to pBks plasmid: could be reduced

## C6ML3-9 sFv′-P1: C6ML3-9 coupled to human protamine P1 peptide (residues 11 to 28)
[1]; 6 μg/μg of DNA, 150 μM chloroquine
  RLU/μg of cell proteins: 9 (±15) RLU/μg of cell proteins
[2]; 3T3-HER2, 6 μg/μg of DNA, 150 μM chloroquine
  RLU/μg of cell proteins: 10024 (±3757) RLU/μg of cell proteins

## C6ML3-9 sFv′-SP: C6ML3-9 sFv′ coupled via Sulfo-SMCC at its C-terminal sulfhydryl to salmon protamine
[1]; 4 μg/μg of DNA, 200 μM chloroquine
  RLU/μg of cell proteins: 1080 (±715) RLU/μg of cell proteins
[3]
  luciferase activity in MCF-7 cells (erbB-2 negative control): minimal luciferase activity
[4]; 200 ng pGL3-control plasmid, 20 hour incubation, luciferase assay about 40 hours post-incubation, FIG. 19
  luciferase gene delivery to SK-OV-3 cells: delivered luciferase reporter plasmids into SK-OV-3 cells
[4]; absence or presence of 100 μM chloroquine, FIG. 20
  chloroquine dependence of luciferase gene delivery to SK-OV-3 cells: chloroquine-dependent
[4]; competition, data not shown
  luciferase gene delivery to SK-OV-3 cells after pre-incubating the cells with free C6ML3-9 sFv′: could be competed away
[5]
  time in which the conjugate-DNA complex could form: 5 min
[2]; 3T3-HER2, 4 μg/μg of DNA, 200 μM chloroquine
  RLU/μg of cell proteins: 220000 (±20000) RLU/μg of cell proteins
[6]
  cells being GFP positive (GFP gene expression): 1-2%

B1: C6.5-H1: C6.5 sFv′ conjugated to the human histone H1 peptide (conjugate)
scFv: QVQLLQSGAELKKPGESLKISCKGSGYSFTSYWIAWVRQMPGKGLEYMGLIYPGDSDTKYSPSFQGQVTISVDKSVSTAYLQWSSLKPSDSAVYFCARHDVGYCSSSNCAKWPEYFQHWGQGTLVTVSSGGGGSGGGGSGGGGSQSVLTQPPSVSAAPGQKVTISCSGSSSNIGNNYVSWYQQLPGTAPKLLIYGHTNRPAGVPDRFSGSKSGTSASLAISGFRSEDEADYYCAAWDDSLSGWVFGGGTKLTVLGHHHHHHGGGGC
peptide: AKKAKSPKKAKAAKPKKAPKSPAKAK
[1]; 7 μg/μg of DNA, no chloroquine
  RLU/μg of cell proteins: 6 (±7) RLU/μg of cell proteins
[2]; [7]
  RLU/μg of cell proteins: 659 (±240) RLU/μg of cell proteins
